Test results as given in publication PMC12373846, “Hemoglobin as a pseudoperoxidase and drug target for oxidative stress-related diseases” (Signal Transduction and Targeted Therapy, 2025).

What was measured:
[1] = ROS-Glo H2O2 assay without HRP or Hb; format: biochemical; conditions: ROS-Glo assay lacking HRP/Hb
Protocol: (§1) Hb (Sigma‒Aldrich, H7379), H2O2 (Sigma‒Aldrich, H1009), and Amplex Red reagents (Invitrogen, A12222) were obtained for the study. A 4 μM H2O2 solution was prepared in 50 mM sodium phosphate buffer (pH 7.2). Then, 49 μl of this mixture was mixed with 1 μl of the test compound in DMSO or distilled water. The mixture was combined with an assay mixture of Amplex Red reagent (20 mM stock to 0.1 mM) and HRP (200 U/ml stock to 0.2 U/ml) and added to the wells at 50 μl/well. After a 60-min incubation at 37 °C, resorufin production was quantified via a microplate fluorescence reader (SpectraMax iD5, Molecular Devices) at ex/em = 535/580 nm. The H2O2-decomposing activity was estimated via the following equation: (sample fluorescence-blank fluorescence)/(control […]-blank fluorescence) × 100. For the ROS-Glo assay, the H2O2 substrate solution and ROS-Glo detection solution were prepared according to the manufacturer’s instructions. 10 μM H2O2 and drugs were prepared as in the Amplex Red assay, with HRP, Hb, CAT, or GPx added as needed. The mixture was added to the wells at 100 μl/well and incubated for 60 min at 37 °C. H2O2 substrate solution was added, and the mixture was incubated at room temperature for 30 min. After the H2O2 substrate solution was added and incubated at room temperature for 30 min, the ROS-Glo detection solution was added, and the mixture was incubated for 15 min. Luminescence was measured via iD5 microplate readers. The H2O2-decomposing activity was estimated via the following equation: (sample luminescence-blank luminescence)/(control luminescence-blank luminescence) × 100. The U/ml was calculated on the basis of the amount of H2O2 reduced by Hb during the reaction, using μg/ml and U/mg.

HRP = molecular target: T1, HRP (Armoracia rusticana, UniProt P00433); assay: H2O2 assay with HRP (HRP-EC50); format: biochemical, horseradish; conditions: Tables S2, S3; read-out: HRP-EC50
T1 sequence (P00433 31-353): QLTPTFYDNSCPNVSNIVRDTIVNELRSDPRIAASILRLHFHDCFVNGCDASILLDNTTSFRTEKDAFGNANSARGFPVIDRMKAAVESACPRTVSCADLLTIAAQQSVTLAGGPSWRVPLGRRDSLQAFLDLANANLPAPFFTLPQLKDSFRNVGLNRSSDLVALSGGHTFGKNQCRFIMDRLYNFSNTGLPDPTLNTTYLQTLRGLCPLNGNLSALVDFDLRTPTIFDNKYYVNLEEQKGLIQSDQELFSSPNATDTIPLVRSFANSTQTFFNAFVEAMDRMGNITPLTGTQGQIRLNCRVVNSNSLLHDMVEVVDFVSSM
Protocol: as §1

APP/PS1 mice = assay: Immunohistochemistry of hippocampus, APP/PS1 mice; format: in vivo, mouse; conditions: 3 mg/kg/day i.p.
Protocol: For an animal model of AD, both sexes of 10- to 18-month-old APP/PS1 mice were maintained and used as previously described.[76],[77] To test the effects of novel H2O2-decomposing enhancers in the AD model, the mice were treated by i.p. injection with KDS12008 (3 mg/kg/day), KDS12017 (3 mg/kg/day), or KDS12025 (3 or 10 mg/kg/day) once per day for 1 or 2 weeks, depending on the experimental protocol. All drugs were dissolved in 200 μl of saline, and the amount of each drug was calculated on the basis of the weight (kg) of the mouse. Moreover, KDS12025 (3 mg/kg/day) was orally administered to the AD model for 2 weeks ad libitum.
The mice were deeply anesthetized with vaporized 1% isoflurane and placed into stereotaxic frames (RWD Life Science, China). Following an incision on the midline of the scalp, a hole was drilled into the skull above the hippocampus. AAV-GFAP104-GFP or AAV-GFAP104-DTR-GFP was bilaterally microinjected into the hippocampal CA1 region (AP, −2.0 mm; ML, ±1.5 mm; DV, −1.65 mm from the bregma). Diphtheria toxin (2 mg/ml) was administered for 16 days as previously described.[77] For shRNA knockdown, AAV-pSicoR-Hbβ-shRNA-mCherry or AAV-pSicoR-Sc-shRNA-mCherry was microinjected into the same coordinate system. A total of 0.8 µl of the virus was injected via a syringe pump (KD Scientific, USA). The injection procedures were implemented before 5 weeks of the experiments. For cell type-specific knockdown, AAV-pSico-Hbβ-shRNA-GFP or AAV-pSico-Sc-shRNA-GFP was combined with either AAV-CaMKII-Cre-mCherry for neuronal targeting or AAV-GFAP-Cre-mCherry for astrocyte targeting. The viruses were bilaterally injected into the hippocampus and substantia nigra via the same stereotaxic coordinates and injection procedures. All viruses used in this study were produced at the Institute for Basic Science virus facility (IBS virus facility, Korea). To investigate the effects of 0.1 mg/kg/day KDS12025, GiD mice were injected with diphtheria toxin (2 mg/ml) daily for 16 days. Concurrently, KDS12025 was administered ad libitum (0.1 mg/kg/day) during the same period.
The mice were deeply anesthetized with 2% isoflurane and positioned on the operating table. After the abdomen was opened and the heart was exposed, the […] were perfused with saline, followed by 4% paraformaldehyde (PFA) in 0.1 M PBS. The mice were decapitated, and the brains were excised from the skull. Excised brains were postfixed in 4% PFA overnight at 4 °C and dehydrated in 30% sucrose for 48 h. Coronal hippocampal sections were cut at 30 µm thickness with a cryostat and stored in storage solution. For the ALS experiments, lumbar spinal cords (L2–L5) were also carefully dissected and immediately immersed in 4% PFA for postfixation. The sections were fully washed in 0.1 M PBS and incubated for 1 h in blocking solution (0.3% Triton X-100, 2% donkey and goat serum in 0.1 M PBS). Next, a mixture of primary antibodies in the blocking solution was used for immunostaining on a shaker overnight at 4 °C. The sections were washed in PBS three times. After washing, the sections were incubated with the corresponding fluorescent secondary antibodies for 1 h at RT. DAPI staining was performed by adding a DAPI solution (1:2000) during the second washing step. After the washing step was complete, the sections were mounted on cover slides with mounting medium. A series of fluorescence images were obtained with an LSM900 (Zeiss, Germany) confocal microscope or Lattice SIM Elyra 7 (Zeiss, Germany). The 15–22 μm Z stack images in 1–2 μm steps were processed for image analysis, which was performed via the ImageJ (NIH, US) and ZEN digital imaging for light microscopy blue system (Zeiss, Germany) programs.

Compound	H2O2-decomposing activity without HRP or Hb [1]	EC50 (HRP) [nM]	mean intensity of Iba1 in the hippocampus (APP/PS1 mice; Fig. S10e)	mean intensity of GFAP in the hippocampus (APP/PS1 mice; Fig. S10d)
O=C(O)c1cc(NCCc2ccc(C(F)(F)F)cc2)ccc1O [HTPEB, 2-hydroxy-5-[2-(4-trifluoromethyl-phenyl)-ethylamino]-benzoic acid, reference compound]	no activity	1520	–	–
CN(C)c1ccc(NCCc2ccc(C(F)(F)F)cc2)cc1.Cl [KDS12008, N^1,N^1-dimethyl-N^4-(4-(trifluoromethyl)phenethyl)benzene-1,4-diamine hydrochloride salt]	–	795	1562±64.27	2063±93.76
